The results in this text go back to patent US6653081B2, “Methods for monitoring antiretroviral therapy and guiding therapeutic decision in the treatment of HIV/AIDS” (ViroLogic, Inc., priority 2000, dated 2003).

Assay type in all cases: cell-based, HIV
One assay concerns RTV-1033-3. The assay can be described thus: Phenotypic susceptibility assay, RTV-1033-3. Particulars: single clone from the RTV-1033 pool. The source says:
(§1) The resistance test vectors containing a functional luciferase gene cassette were constructed and host cells were transfected with the resistance test vector DNA. The resistant test vectors contained patient-derived reverse transcriptase and protease sequences that were either susceptible or resistant to the antiretroviral agents, such as nucleoside reverse transcriptase inhibitors, (NRTIs) non-nucleoside reverse transcriptase inhibitors […] protease inhibitors. The resistance test vector viral particles produced by transfecting the resistance test vector DNA into host cells, either in the presence or absence of PRIs, were used to infect target host cells grown either in the absence of NRTIs or NNRTIs, or in the presence of increasing concentrations of the drug. The amount of luciferase activity produced in infected target host cells in the presence of varying concentrations of drug was compared to the amount of luciferase produced in infected target host cells in the absence of drug. “Drug resistance” was measured as the amount of drug required to inhibit by 50% the luciferase activity detected in the absence of drug (inhibitory concentration 50%, IC50). The IC50 values were determined by plotting percent drug inhibition vs. log10 drug concentration. Stimulation of viral replication was measured as the percent increase in luciferase activity detected when infection occurs in the presence of drug as compared to in the absence of drug.
(§2) Host cells were seeded in 10-cm-diameter dishes and were transfected several days after plating with resistance test vector plasmid DNA and the envelope expression vector. Transfections were performed using a calcium-phosphate precipitation procedure. The cell culture media containing the DNA precipitate was replaced with fresh medium, from one to 24 hours, after transfection. Cell culture media containing resistance test vector viral particles was harvested one to four days after transfection and was passed through a […] filter before being used to infect target host cells, or being stored at −80° C. HIV capsid protein (p24) levels in the harvested cell culture media were determined by an EIA method as described by the manufacturer (SAIC; Frederick, Md.). Before infection, target cells (293 and 293/T) were plated in cell culture media. Control infections were performed using cell culture media from mock transfections (no DNA) or transfections containing the resistance test vector plasmid DNA without the envelope expression plasmid. One to three or more days after infection, the media was removed and cell lysis buffer (Promega) was added to each well. Cell lysates were assayed for luciferase activity (FIG. 3). The inhibitory effect of the drug was determined using the following equation:
(§3) % luciferase inhibition=1−(RLUluc[drug]÷RLUluc)×100
(§4) where RLUluc [drug] is the Relative Light Unit of luciferase activity in infected cells in the presence of drug, and RLUluc is the Relative Light Unit of luciferase activity in infected cells in the absence of drug. IC50values were obtained from the sigmoidal curves that were generated from the data by plotting the percent inhibition of luciferase activity vs. the log10 drug concentration. The percent luciferase stimulation is the negative of the % inhibition calculated using the formula above.
A single clone (RTV-1033-3) was obtained from the patient-derived RTV pool that had mutations and phenotypic patterns of NNRTI susceptibility and drug-dependent stimulation of viral replication characteristic of the RTV-1033 pool. The RTV-1033-3 had the following mutations present in the revere transcriptase: V35I, D67N, T69D, K70R, V106A, D123G, V189L, T200A, I202T, H208Y, R211K, T215F, D218E, K219Q, H221Y, L228H, L283I, R284K, T286A, V293I and E297K.

Another assay has as its system RTV-010829. The assay can be described thus: Phenotypic susceptibility assay, RTV-010829. Particulars: patient 10829; for decrease in susceptibility: K103N, V245E, I270M.
Description: as §1, §2, §3, §4
A resistance test vector was constructed as described in Example 1 from a virus sample obtained from patient 10829. The prior and current treatment regimens are unknown. Isolation of viral RNA and RT/PCR was used to generate a patient derived segment (PDS) that comprised viral sequences coding for all of PR and aa 1-313 of RT. The PDS were inserted into an indicator gene viral vector to generate a resistance test vector designated RTV-010829. RTV-010829 was then tested in a phenotypic assay to determine accurately and quantitatively the level of susceptibility to a panel of anti-retroviral drugs. […]

The subject of a further assay is RTV-1046 and RTV-887. The assay can be described thus: Phenotypic susceptibility assay, RTV-1046 and RTV-887. Particulars: patient ARG-014, weeks 8 and 16; Y181C and M230L present. The source says: (§5) The resistance test vectors containing a functional luciferase gene cassette were constructed and host cells were transfected with the resistance test vector DNA. The resistant test vectors contained patient-derived reverse transcriptase and protease sequences that were either susceptible or resistant to the antiretroviral agents, such as nucleoside reverse transcriptase inhibitors, (NRTIs) non-nucleoside reverse transcriptase inhibitors […] protease inhibitors. The resistance test vector viral particles produced by transfecting the resistance test vector DNA into host cells, either in the presence or absence of PRIs, were used to infect target host cells grown either in the absence of NRTIs or NNRTIs, or in the presence of increasing concentrations of the drug. The amount of luciferase activity produced in infected target host cells in the presence of varying concentrations of drug was compared to the amount of luciferase produced in infected target host cells in the absence of drug. […] The IC50 values were determined by plotting percent drug inhibition vs. log10 drug concentration. Stimulation of viral replication was measured as the percent increase in luciferase activity detected when infection occurs in the presence of drug as compared to in the absence of drug.
(§6) Host cells were seeded in 10-cm-diameter dishes and were transfected several days after plating with resistance test vector plasmid DNA and the envelope expression vector. […] HIV capsid protein (p24) levels in the harvested cell culture media were determined by an EIA method as described by the manufacturer (SAIC; Frederick, Md.). […] The inhibitory effect of the drug was determined using the following equation: […]
(§7) where RLUluc [drug] is the Relative Light Unit of luciferase activity in infected cells in the presence of drug, and RLUluc is the Relative Light Unit of luciferase activity in infected cells in the absence of drug. […] The percent luciferase stimulation is the negative of the % inhibition calculated using the formula above. […]

The subject of another assay is RTV-011073/241V. Description: Phenotypic susceptibility assay, RTV-011073/241V. The following applies: RTV-011073 with V241S reverted.
Description: as §1, §2, §3, §4
A resistance test vector containing all of the mutations present in RTV-011073 except for the V241S and the T277K was constructed and tested using the phenotypic assay described earlier. The results were compared to those determined using the parent RTV-011073. We determined the pattern of phenotypic susceptibility to the NNRTIs, delavirdine, nevirapine and efavirenz, in the reverted vector RTV-011073/241V/277T. […] A resistance test vector containing all of the mutations present in RTV-011073 except for the V241S was constructed and tested using the phenotypic assay described earlier. The results were compared to those determined using the parent RTV-011073. […]

The next assay deals with RTV-010835. The assay can be described thus: Phenotypic susceptibility assay, RTV-010835. The following applies: patient CCTG-2165, week 15; K103N and M230L present.
Description: as §5, §6, §7

A further assay relates to RTV-012090. The assay can be described thus: Phenotypic susceptibility assay, RTV-012090. The following applies: patient CCTG-1025, week 48; for decrease in susceptibility: K101E, K103N, G190S, M230L.
Description: as §1, §2, §3, §4
Resistance test vectors were constructed as described in Example 1 from virus samples obtained from an individual patient at two separate time points over a 48-week period. […]

As to `CC(C)Nc1cccnc1N1CCN(C(=O)c2cc3cc(NS(C)(=O)=O)ccc3[nH]2)CC1` [delavirdine], the “drug-dependent stimulation of viral replication” value (“drug-dependent stimulation” for short) in the assay with RTV-1033-3 is 190%; in the assay on RTV-010829, ~100%; with RTV-011073/241V it was “no longer negative inhibition”; with RTV-012090 it was ~30%. In addition, in the assay on RTV-1033-3, the reductions in susceptibility came to 27 fold. Also, the decrease in susceptibility in the assay with RTV-010829 is recorded as > 250 fold; with RTV-1046 and RTV-887 it was > 250 fold; in the assay with RTV-010835, > 250 fold; in the assay with RTV-012090, 144 fold. Besides, the “reductions in susceptibility compared to wild type control RTV” value (“reductions … to wild type control RTV” for short) in the assay with RTV-011073/241V worked out at 59 fold.
As for `O=C1Nc2ccc(Cl)cc2[C@@](C#CC2CC2)(C(F)(F)F)O1` [efavirenz], the “drug-dependent stimulation” value in the assay with RTV-1033-3 is listed as 180%; in the assay with RTV-010829, ~80%; in the assay on RTV-011073/241V, “no longer negative inhibition”; in the assay on RTV-012090, ~40%. Also, the reductions in susceptibility in the assay with RTV-1033-3 is > 450 fold. Besides, the decrease in susceptibility in the assay on RTV-010829 was > 450 fold; in the assay on RTV-1046 and RTV-887 it was 5 fold; in the assay with RTV-010835, 270 fold; with RTV-012090, > 450 fold. Moreover, the “reductions … to wild type control RTV” value in the assay on RTV-011073/241V came out at 54 fold.
With `Cc1ccnc2c1NC(=O)c1cccnc1N2C1CC1` [nevirapine], the “drug-dependent stimulation” value with RTV-1033-3 is reported as 200%; in the assay on RTV-010829, ~100%; with RTV-011073/241V, “no longer negative inhibition”; with RTV-012090, ~80%. The reductions in susceptibility with RTV-1033-3 is reported as > 600 fold. In addition, the decrease in susceptibility in the assay with RTV-010829 is > 600 fold; in the assay with RTV-1046 and RTV-887, > 600 fold; with RTV-010835 it was > 600 fold; in the assay with RTV-012090 it was > 600 fold. Also, the “reductions … to wild type control RTV” value with RTV-011073/241V is on record as 146 fold.
